# Species on record: Rattus norvegicus
# Assay: DrugMatrix - Regimen: Daily Repeat
# Format: toxicity, organism-based, Sprague-Dawley
# Parameters: regimen Daily Repeat, gender Male, age 6-8 weeks
# Conditions: in vivo, po, route oral GAVAGE, […]; for ABSOLUTE BASOPHIL / ABSOLUTE EOSINOPHIL / ABSOLUTE LYMPHOCYTE / ABSOLUTE MONOCYTE / ABSOLUTE SEGMENTED NEUTROPHIL / BASOPHIL / EOSINOPHIL / ERYTHROCYTE COUNT / HEMATOCRIT / HEMOGLOBIN / LEUKOCYTE COUNT / LYMPHOCYTE / MEAN CORPUSCULAR HEMOGLOBIN / MEAN CORPUSCULAR HEMOGLOBIN CONCENTRATION / MEAN CORPUSCULAR VOLUME / MONOCYTE / NEUTROPHIL / NUCLEATED RED BLOOD CELLS / PLATELET COUNT: tissue Blood; for ALANINE AMINOTRANSFERASE / ALBUMIN / ALKALINE PHOSPHATASE / ASPARTATE AMINOTRANSFERASE / BLOOD UREA NITROGEN / CARBON DIOXIDE / CHLORIDE / CHOLESTEROL / CREATINE PHOSPHOKINASE / CREATININE / GLUCOSE / LACTATE DEHYDROGENASE / LIPASE / PHOSPHORUS / POTASSIUM / SODIUM / TOTAL BILIRUBIN / TOTAL PROTEIN / URIC ACID: tissue Plasma
# [1] = 10 mg/kg, 120 h, dose level Low, time 5 day
# [2] = 250 mg/kg, 72 h, dose level High, time 3 day
# [3] = 250 mg/kg, 120 h, dose level High, time 5 day
structure (smiles),measurement,setting,value
COc1cc(N)c(Cl)cc1C(=O)NC1CCN(CCCOc2ccc(F)cc2)CC1OC (centres undefined) [CISAPRIDE],ABSOLUTE BASOPHIL,[1],0 CELLS/uL
same,ABSOLUTE EOSINOPHIL,[1],0 CELLS/uL
same,ABSOLUTE LYMPHOCYTE,[1],8665 CELLS/uL
same,ABSOLUTE MONOCYTE,[1],47.33 CELLS/uL
same,ABSOLUTE SEGMENTED NEUTROPHIL,[1],387.67 CELLS/uL
same,BASOPHIL,[1],0%
same,EOSINOPHIL,[1],0%
same,ERYTHROCYTE COUNT,[1],6.01 x10E6/uL
same,HEMATOCRIT,[1],36.43%
same,HEMOGLOBIN,[1],13.9 G/DL
same,LEUKOCYTE COUNT,[1],9.1 x10E3/uL
same,LYMPHOCYTE,[1],94.67%
same,MEAN CORPUSCULAR HEMOGLOBIN,[1],23.2 pg
same,MEAN CORPUSCULAR HEMOGLOBIN CONCENTRATION,[1],38.17 G/DL
same,MEAN CORPUSCULAR VOLUME,[1],60.73 fL
same,MONOCYTE,[1],0.67%
same,NEUTROPHIL,[1],4.67%
same,NUCLEATED RED BLOOD CELLS,[1],0.33 /100WBC
same,PLATELET COUNT,[1],1215.33 x10E3/uL
same,ALANINE AMINOTRANSFERASE,[1],83.67 u/L
same,ALBUMIN,[1],4.23 G/DL
same,ALKALINE PHOSPHATASE,[1],427.67 u/L
same,ASPARTATE AMINOTRANSFERASE,[1],78.33 u/L
same,BLOOD UREA NITROGEN,[1],13.67 mg/dL
same,CARBON DIOXIDE,[1],35 mmol/L
same,CHLORIDE,[1],99.33 MEQ/L
same,CHOLESTEROL,[1],86.33 mg/dL
same,CREATINE PHOSPHOKINASE,[1],161.33 u/L
same,CREATININE,[1],0.16 mg/dL
same,GLUCOSE,[1],163 mg/dL
same,LACTATE DEHYDROGENASE,[1],134.33 u/L
same,LIPASE,[1],11 u/L
same,PHOSPHORUS,[1],9.6 mg/dL
same,POTASSIUM,[1],5.19 MEQ/L
same,SODIUM,[1],143.17 MEQ/L
same,TOTAL BILIRUBIN,[1],0.17 mg/dL
same,TOTAL PROTEIN,[1],6.1 G/DL
same,URIC ACID,[1],0.37 mg/dL
same,ABSOLUTE BASOPHIL,[2],0 CELLS/uL
same,ABSOLUTE EOSINOPHIL,[2],36.33 CELLS/uL
same,ABSOLUTE LYMPHOCYTE,[2],10590.67 CELLS/uL
same,ABSOLUTE MONOCYTE,[2],0 CELLS/uL
same,ABSOLUTE SEGMENTED NEUTROPHIL,[2],573 CELLS/uL
same,BASOPHIL,[2],0%
same,EOSINOPHIL,[2],0.33%
same,ERYTHROCYTE COUNT,[2],5.39 x10E6/uL
same,HEMATOCRIT,[2],32.73%
same,HEMOGLOBIN,[2],13.17 G/DL
same,LEUKOCYTE COUNT,[2],11.2 x10E3/uL
same,LYMPHOCYTE,[2],94.67%
same,MEAN CORPUSCULAR HEMOGLOBIN,[2],24.43 pg
same,MEAN CORPUSCULAR HEMOGLOBIN CONCENTRATION,[2],40.2 G/DL
same,MEAN CORPUSCULAR VOLUME,[2],60.73 fL
same,MONOCYTE,[2],0%
same,NEUTROPHIL,[2],5%
same,NUCLEATED RED BLOOD CELLS,[2],0 /100WBC
same,PLATELET COUNT,[2],918 x10E3/uL
same,ALANINE AMINOTRANSFERASE,[2],102.67 u/L
same,ALBUMIN,[2],3.83 G/DL
same,ALKALINE PHOSPHATASE,[2],517.33 u/L
same,ASPARTATE AMINOTRANSFERASE,[2],96 u/L
same,BLOOD UREA NITROGEN,[2],13 mg/dL
same,CARBON DIOXIDE,[2],26 mmol/L
same,CHLORIDE,[2],95 MEQ/L
same,CHOLESTEROL,[2],89.67 mg/dL
same,CREATINE PHOSPHOKINASE,[2],253 u/L
same,CREATININE,[2],0.15 mg/dL
same,GLUCOSE,[2],137.33 mg/dL
same,LACTATE DEHYDROGENASE,[2],118.33 u/L
same,LIPASE,[2],12.33 u/L
same,PHOSPHORUS,[2],10.77 mg/dL
same,POTASSIUM,[2],5.65 MEQ/L
same,SODIUM,[2],138.1 MEQ/L
same,TOTAL BILIRUBIN,[2],0.17 mg/dL
same,TOTAL PROTEIN,[2],5.5 G/DL
same,URIC ACID,[2],0.6 mg/dL
same,ABSOLUTE BASOPHIL,[3],0 CELLS/uL
same,ABSOLUTE EOSINOPHIL,[3],43.33 CELLS/uL
same,ABSOLUTE LYMPHOCYTE,[3],8832 CELLS/uL
same,ABSOLUTE MONOCYTE,[3],95.67 CELLS/uL
same,ABSOLUTE SEGMENTED NEUTROPHIL,[3],595.67 CELLS/uL
same,BASOPHIL,[3],0%
same,EOSINOPHIL,[3],0.33%
same,ERYTHROCYTE COUNT,[3],5.74 x10E6/uL
same,HEMATOCRIT,[3],35.13%
same,HEMOGLOBIN,[3],13.57 G/DL
same,LEUKOCYTE COUNT,[3],9.57 x10E3/uL
same,LYMPHOCYTE,[3],92%
same,MEAN CORPUSCULAR HEMOGLOBIN,[3],23.67 pg
same,MEAN CORPUSCULAR HEMOGLOBIN CONCENTRATION,[3],38.63 G/DL
same,MEAN CORPUSCULAR VOLUME,[3],61.23 fL
same,MONOCYTE,[3],1%
same,NEUTROPHIL,[3],6.67%
same,NUCLEATED RED BLOOD CELLS,[3],0.67 /100WBC
same,PLATELET COUNT,[3],1240.33 x10E3/uL
same,ALANINE AMINOTRANSFERASE,[3],89 u/L
same,ALBUMIN,[3],3.93 G/DL
same,ALKALINE PHOSPHATASE,[3],342 u/L
same,ASPARTATE AMINOTRANSFERASE,[3],87.67 u/L
same,BLOOD UREA NITROGEN,[3],14.67 mg/dL
same,CARBON DIOXIDE,[3],34 mmol/L
same,CHLORIDE,[3],99.5 MEQ/L
same,CHOLESTEROL,[3],78.33 mg/dL
same,CREATINE PHOSPHOKINASE,[3],245 u/L
same,CREATININE,[3],0.15 mg/dL
same,GLUCOSE,[3],170.67 mg/dL
same,LACTATE DEHYDROGENASE,[3],145 u/L
same,LIPASE,[3],12.67 u/L
same,PHOSPHORUS,[3],10.53 mg/dL
same,POTASSIUM,[3],5.47 MEQ/L
same,SODIUM,[3],141.95 MEQ/L
same,TOTAL BILIRUBIN,[3],0.17 mg/dL
same,TOTAL PROTEIN,[3],5.57 G/DL
same,URIC ACID,[3],0.67 mg/dL
